Holding throughout (assay type): cell-based
One experiment concerns the target T1, human TLR8 (Homo sapiens, UniProt Q9NR97).
T1 construct: host or cells: HEK-Blue cells (HEK293-derived reporter line)
T1 sequence (Q9NR97 27-1041): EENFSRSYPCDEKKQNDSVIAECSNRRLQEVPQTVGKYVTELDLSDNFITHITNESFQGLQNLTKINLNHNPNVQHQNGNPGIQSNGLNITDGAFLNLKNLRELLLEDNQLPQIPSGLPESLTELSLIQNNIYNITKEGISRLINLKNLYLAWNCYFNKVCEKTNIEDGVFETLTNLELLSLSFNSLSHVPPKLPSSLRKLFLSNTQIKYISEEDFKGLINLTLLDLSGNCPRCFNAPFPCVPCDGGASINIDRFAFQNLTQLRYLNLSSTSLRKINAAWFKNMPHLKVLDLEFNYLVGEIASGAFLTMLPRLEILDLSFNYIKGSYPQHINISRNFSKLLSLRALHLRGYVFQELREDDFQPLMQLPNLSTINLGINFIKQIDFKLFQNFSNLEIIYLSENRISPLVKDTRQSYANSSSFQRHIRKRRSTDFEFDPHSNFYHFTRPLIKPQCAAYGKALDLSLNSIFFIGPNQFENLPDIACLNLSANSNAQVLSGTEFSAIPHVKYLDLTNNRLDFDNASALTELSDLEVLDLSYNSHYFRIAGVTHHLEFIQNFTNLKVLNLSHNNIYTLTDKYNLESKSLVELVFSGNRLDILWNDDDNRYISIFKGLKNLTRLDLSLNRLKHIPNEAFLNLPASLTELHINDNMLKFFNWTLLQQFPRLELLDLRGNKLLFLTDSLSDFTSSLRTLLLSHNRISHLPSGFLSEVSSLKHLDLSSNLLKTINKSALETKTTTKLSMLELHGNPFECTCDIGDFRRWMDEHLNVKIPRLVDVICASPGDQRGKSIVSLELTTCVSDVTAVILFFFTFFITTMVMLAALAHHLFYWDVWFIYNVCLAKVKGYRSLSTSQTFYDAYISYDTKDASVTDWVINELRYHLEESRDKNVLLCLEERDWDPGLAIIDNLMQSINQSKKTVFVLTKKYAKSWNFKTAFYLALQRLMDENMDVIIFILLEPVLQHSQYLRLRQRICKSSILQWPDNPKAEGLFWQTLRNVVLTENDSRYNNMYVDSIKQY
Put plainly: TLR8 inhibition reporter assay (HEK-Blue cells, SEAP reporter, R848 stimulation). The note with it: HEK-Blue cells overexpressing human TLR8, SEAP reporter, R848 15.9 μM. In short, it runs like this: (§1)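 Percent inhibition of agonist-induced SEAP secretion in HEK-Blue cells after 22 h at 37 °C. Stimuli: 7.5 μM gardiquimod, 15.9 μM R848, 5 nM ODN2006 for TLR7, TLR8 and TLR9, added after 30 min compound exposure over a 0.05 nM–50 μM range.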
(A reporter such as luciferase makes a cellular process visible.)

For another experiment, the target named is T2, human TLR9 (Homo sapiens, UniProt Q9NR96).
T2 construct: host or cells: HEK-Blue cells (HEK293-derived reporter line)
T2 sequence (Q9NR96 26-1032): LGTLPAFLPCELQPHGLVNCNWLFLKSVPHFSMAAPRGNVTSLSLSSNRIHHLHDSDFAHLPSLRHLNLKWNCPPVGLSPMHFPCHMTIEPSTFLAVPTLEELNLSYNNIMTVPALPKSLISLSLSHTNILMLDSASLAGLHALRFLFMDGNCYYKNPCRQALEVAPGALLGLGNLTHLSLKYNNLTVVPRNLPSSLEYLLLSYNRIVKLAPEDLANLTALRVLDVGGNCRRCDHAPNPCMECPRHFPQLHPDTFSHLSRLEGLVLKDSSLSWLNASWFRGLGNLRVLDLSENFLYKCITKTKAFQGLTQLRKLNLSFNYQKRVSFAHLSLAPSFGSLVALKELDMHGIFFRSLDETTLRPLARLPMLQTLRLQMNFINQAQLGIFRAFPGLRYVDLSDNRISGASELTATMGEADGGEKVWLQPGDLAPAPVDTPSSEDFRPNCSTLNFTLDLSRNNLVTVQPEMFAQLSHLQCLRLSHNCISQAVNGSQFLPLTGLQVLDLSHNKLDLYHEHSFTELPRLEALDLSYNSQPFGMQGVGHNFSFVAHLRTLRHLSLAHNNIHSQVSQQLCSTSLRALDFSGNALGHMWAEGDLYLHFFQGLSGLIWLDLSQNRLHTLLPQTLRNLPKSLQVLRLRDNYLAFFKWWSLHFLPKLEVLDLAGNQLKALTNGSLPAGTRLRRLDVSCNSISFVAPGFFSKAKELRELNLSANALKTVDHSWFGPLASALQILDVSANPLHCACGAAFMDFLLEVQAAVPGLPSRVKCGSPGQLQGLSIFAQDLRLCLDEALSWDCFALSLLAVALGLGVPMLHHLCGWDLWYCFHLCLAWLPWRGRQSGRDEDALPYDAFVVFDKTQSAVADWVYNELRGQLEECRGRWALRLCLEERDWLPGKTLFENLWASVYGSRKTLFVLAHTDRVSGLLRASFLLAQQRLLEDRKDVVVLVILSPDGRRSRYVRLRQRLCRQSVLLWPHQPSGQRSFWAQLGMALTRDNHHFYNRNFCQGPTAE
Put plainly: TLR9 inhibition reporter assay (HEK-Blue cells, SEAP reporter, ODN2006 stimulation). The note with it: HEK-Blue cells overexpressing human TLR9, SEAP reporter, ODN2006 5 nM. In short, it runs like this:
as §1

A further experiment concerns the target T3, human TLR7 (Homo sapiens, UniProt Q9NYK1).
T3 construct: host or cells: HEK-Blue cells (HEK293-derived reporter line)
T3 sequence (Q9NYK1 27-1049): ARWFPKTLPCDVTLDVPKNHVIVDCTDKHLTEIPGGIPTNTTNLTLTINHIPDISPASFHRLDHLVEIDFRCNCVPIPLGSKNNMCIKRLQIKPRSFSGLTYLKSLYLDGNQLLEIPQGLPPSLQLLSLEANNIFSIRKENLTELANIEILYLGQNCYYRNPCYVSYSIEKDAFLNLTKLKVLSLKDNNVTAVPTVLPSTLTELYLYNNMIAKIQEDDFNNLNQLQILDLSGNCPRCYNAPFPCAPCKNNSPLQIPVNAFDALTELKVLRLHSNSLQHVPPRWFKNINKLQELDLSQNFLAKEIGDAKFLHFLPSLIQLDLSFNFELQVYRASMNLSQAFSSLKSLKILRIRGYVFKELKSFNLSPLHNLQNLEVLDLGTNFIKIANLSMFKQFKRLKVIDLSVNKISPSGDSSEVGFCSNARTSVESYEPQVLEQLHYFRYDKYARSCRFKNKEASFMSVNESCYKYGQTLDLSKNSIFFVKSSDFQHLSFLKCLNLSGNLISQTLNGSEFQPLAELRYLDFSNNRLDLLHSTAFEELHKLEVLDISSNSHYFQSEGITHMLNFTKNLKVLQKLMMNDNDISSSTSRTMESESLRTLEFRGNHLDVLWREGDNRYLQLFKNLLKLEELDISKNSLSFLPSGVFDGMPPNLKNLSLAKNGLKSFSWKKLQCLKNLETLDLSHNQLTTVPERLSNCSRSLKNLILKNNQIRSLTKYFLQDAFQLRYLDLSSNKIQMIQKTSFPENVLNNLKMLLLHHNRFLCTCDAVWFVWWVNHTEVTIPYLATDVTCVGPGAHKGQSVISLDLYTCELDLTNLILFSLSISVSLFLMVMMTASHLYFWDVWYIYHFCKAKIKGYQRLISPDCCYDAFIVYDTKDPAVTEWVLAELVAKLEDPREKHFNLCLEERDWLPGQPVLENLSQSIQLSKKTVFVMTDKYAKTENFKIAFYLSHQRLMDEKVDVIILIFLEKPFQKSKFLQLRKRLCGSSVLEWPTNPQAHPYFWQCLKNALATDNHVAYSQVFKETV
Description: TLR7 inhibition reporter assay (HEK-Blue cells, SEAP reporter, gardiquimod stimulation). The note with it: HEK-Blue cells overexpressing human TLR7, SEAP reporter, gardiquimod 7.5 μM. In outline: as §1

SMILES strings stand for the structures.

Turning to `CCc1ncc(CN2CCC(c3ccc4[nH]c(-c5ccnc6[nH]ncc56)c(CC)c4c3)CC2)[nH]1` [Example 915, 4-(3-ethyl-5-(1-((2-ethyl-1H-imidazol-5-yl)methyl)piperidin-4-yl)-1H-indol-2-yl)-1H-pyrazolo[3,4-b]pyridine], the results for the IC50 against human TLR8, at human TLR9 and against human TLR7 were less than 100 nM, 100 to 1000 nM and 100 to 1000 nM, respectively.
Turning to `CC(C)c1c(-c2cc(C(C)(C)O)c3nccn3c2)[nH]c2ccc(C3CCN(C(=O)CN(C)C)CC3)cc12` [Example 493, 2-(dimethylamino)-1-(4-(2-(8-(2-hydroxypropan-2-yl)imidazo[1,2-a]pyridin-6-yl)-3-isopropyl-1H-indol-5-yl)piperidin-1-yl) ethan-1-one], the IC50 at human TLR8 is 1000 to 50000 nM; at human TLR9, 100 to 1000 nM; against human TLR7, less than 100 nM.
On to `CCc1c(-c2ccnc3[nH]nc(CC)c23)[nH]c2ccc(C3CCNCC3)cc12` [Example 224, 3-ethyl-4-(3-ethyl-5-(piperidin-4-yl)-1H-indol-2-yl)-1H-pyrazolo[3,4-b]pyridine], for which the half-inhibitory concentration (IC50) on human TLR8 is less than 100 nM; against human TLR9, 100 to 1000 nM; on human TLR7, 100 to 1000 nM.
As for `Cc1cc(-c2[nH]c3ccc(C4CCN(C5COC5)CC4)cc3c2C(C)C)cn2ccnc12` [Example 719, 6-(3-isopropyl-5-(1-(oxetan-3-yl)piperidin-4-yl)-1H-indol-2-yl)-8-methylimidazo[1,2-a]pyridine], the IC50 on human TLR8 was less than 100 nM; against human TLR9, 100 to 1000 nM; against human TLR7 it was less than 100 nM.
As for `Cc1cc(-c2[nH]c3ccc(C4CCN(C5CCOCC5)CC4)cc3c2C(C)C)cn2nnnc12` [Example 698, 6-(3-isopropyl-5-(1-(tetrahydro-2H-pyran-4-yl)piperidin-4-yl)-1H-indol-2-yl)-8-methyltetrazolo[1,5-a]pyridine], the results for the 50% inhibitory concentration (IC50) at human TLR8, against human TLR9 and against human TLR7 were less than 100 nM, 1000 to 50000 nM and less than 100 nM, respectively.
Take `CCc1c(-c2ccc3nncn3n2)[nH]c2ccc(C3CCNCC3)cc12` [Example 184, 6-(3-ethyl-5-(piperidin-4-yl)-1H-indol-2-yl)-[1,2,4] triazolo[4,3-b]pyridazine]: the IC50 against human TLR8, against human TLR9 and against human TLR7 was 100 to 1000 nM each time.
With `CC(C)c1c(-c2ccnc3[nH]c(=O)oc23)[nH]c2ccc(C3CCNCC3)cc12` [Example 58, 7-(3-isopropyl-5-(piperidin-4-yl)-1H-indol-2-yl)oxazolo[4,5-b]pyridin-2(3H)-one], the IC50 on human TLR8, against human TLR9 and against human TLR7 was 1000 to 50000 nM in each case.
For the compound `CC(C)c1c(-c2ccnc3[nH]ncc23)[nH]c2ccc(C3CCN(Cc4ccc(OCCN(C)c5ccccn5)cc4)CC3)cc12` [Example 894, N-(2-(4-((4-(3-isopropyl-2-(1H-pyrazolo[3,4-b]pyridin-4-yl)-1H-indol-5-yl)piperidin-1-yl)methyl)phenoxy)ethyl)-N-methylpyridin-2-amine], the half-inhibitory concentration (IC50) was less than 100 nM on human TLR8, 100 to 1000 nM on human TLR9 and 100 to 1000 nM against human TLR7.
Take `CC(C)c1c(-c2cc(C(C)C)c3nccn3c2)[nH]c2ccc(C3CCNCC3)cc12` [Example 260, 8-Isopropyl-6-(3-isopropyl-5-(piperidin-4-yl)-1H-indol-2-yl)imidazo[1,2-a]pyridine]: the half-inhibitory concentration (IC50) against human TLR8 was 100 to 1000 nM; against human TLR9, 1000 to 50000 nM; on human TLR7 it was less than 100 nM.
For the compound `CCc1c(C)c(-c2[nH]c3ccc(C4CCNCC4)cc3c2C(C)C)cn2ccnc12` [Example 272, 8-ethyl-6-(3-isopropyl-5-(piperidin-4-yl)-1H-5 indol-2-yl)-7-methylimidazo[1,2-a]pyridine], the results for the IC50 on human TLR8, at human TLR9 and against human TLR7 were less than 100 nM, 100 to 1000 nM and less than 100 nM, respectively.
`CC(C)c1c(-c2ccn3cnnc3c2)[nH]c2ccc(C3CCN(Cc4ncn(C)n4)CC3)cc12` [Example 880, 7-(3-isopropyl-5-(1-((1-methyl-1H-1,2,4-triazol-3-yl)methyl)piperidin-4-yl)-1H-indol-2-yl)-[1,2,4]triazolo[4,3-a]pyridine]: the results for the IC50 at human TLR8, on human TLR9 and against human TLR7 were 100 to 1000 nM, 1000 to 50000 nM and 100 to 1000 nM, respectively.
For the compound `Cc1cc(-c2[nH]c3ccc(C4CCN(C5CCS(=O)(=O)CC5)CC4)cc3c2C(C)C)cn2ccnc12` [Example 799, 4-(4-(3-isopropyl-2-(8-methylimidazo[1,2-a]pyridin-6-yl)-1H-indol-5-yl)piperidin-1-yl)tetrahydro-2H-thiopyran 1,1-dioxide], the IC50 on human TLR8 is less than 100 nM; against human TLR9, 100 to 1000 nM; on human TLR7, less than 100 nM.
As to `Cc1nc2c(C)cc(-c3[nH]c4ccc(C5CCN(CC(=O)N(C)C)CC5)cc4c3C(C)C)cn2c1C` [Example 396, 2-(4-(3-isopropyl-2-(2,3,8-trimethylimidazo[1,2-a]pyridin-6-yl)-1H-indol-5-yl)piperidin-1-yl)-N,N-dimethylacetamide], the IC50 is 100 to 1000 nM against human TLR8, 100 to 1000 nM on human TLR9 and less than 100 nM at human TLR7.

In general, IC50 refers to the concentration at which inhibition is half-maximal.

These data come from patent US11739098B2 (BRISTOL-MYERS SQUIBB COMPANY, priority 2017, dated 2023).
